Reference: US9012403B2, “Peptides as active agents to stabilize biological barriers” (XiberScience GmbH, priority 2010, dated 2015)
Marks after values point to notes of the source that are not given here.

What was measured:
[1] = test system: Phosphorylated Myosin Light Chain (MLC) and actin stress fibers; test: MLC phosphorylation and actin stress fiber formation in ECV304 cells (microscopy score); format: cell-based
Protocol: (§1) To measure MLC phosphorylation and actin stress fiber formation, the following cell lines were used: Caco-2, ECV304 and HpMec. All cells were grown at standard conditions (37° C., 5% CO2 and 95% rH). Culture Medium used: for Caco-2: DMEM+1 mM sodium pyruvate+20% FCS+1% Penicillin Streptomycin; for ECV 304: RPMI 1640+10% FCS+1% Penicillin Streptomycin; and for HpMec: IMDM+25 mM Hepes+10% Human Serum+1% Penicillin Streptomycin+1% L-Glutamine+ECGS/Heparin 2 ml. 4 h before the experiment, cells were starved by serum withdrawal. To induce GEF-activity, cells were stimulated with thrombin, LPS or PMA for the indicated time in presence or absence of 50 μg/ml XIB1-a or XIB1-b. After stimulation, cells were fixed using 4% PFA. Phospho MLC was detected by using the “rabbit anti phosphor-myosin light chain antibody” from Chemicon in a concentration of 3 μl/ml in PBS (Gibco) supplemented with 0.1% Triton X-100. As detection antibody, the Alexa 448 tagged “anti Rabbit IgG Antibody” from Invitrogen was used in a concentration of 0.5 μl/ml in PBS (Gibco) supplemented with 0.1% Triton X-100. Aktin was detected using TRITC-labeled Phalloidin in a concentration of 0.5 μl/ml in PBS (Gibco) supplemented with 0.1% Triton. Stained cells were analyzed by using a Zeiss Laser Scan microscope. Evaluation of the cyto-skeletal activation was performed by 2 independent observers that were blinded to the conditions. Evaluation criteria were set as follows:
(§2) Actin: parallel actin bundles absent=0; distinct bundle formation=1; prominent parallel bundles=2; Phospho-MLC: present at cell poles=0; slight co-localization with actin bundles=1; prominent co-localization with actin bundles=2

GEF [2] = test: GEF-activity in membrane fractions of Caco-2 cells (RhoGEF Exchange Assay); format: cell-based
Protocol: (§3) To measure the GEF-inhibitory effect, the following cell lines were used: Caco-2 (epithelial cells from adeno-carcinoma), ECV304 (epithelial cells from bladder carcinoma) and HpMec (endothelial cells, immortalized pulmonary micro-vascular cells). All cells were grown at standard conditions (37° C., 5% CO2 and 95% relative humidity (rH)). Culture Medium used for Caco-2: DMEM+1 mM sodium pyruvate+20% FCS+1% Penicillin Streptomycin; for ECV 304: RPMI 1640+10% FCS+1% Penicillin Streptomycin; and for HpMec: IMDM+25 mM Hepes+10% Human Serum+1% Penicillin Streptomycin+1% L-Glutamine+ECGS/Heparin 2 ml. 4 h before the experiment, cells were starved by serum withdrawal. To induce GEF-activity, cells were stimulated with thrombin, lipopolysaccharide (LPS) or PMA for the indicated time in presence or absence of 50 μg/ml XIB1-a or XIB1-b. After stimulation, membrane fractions were prepared by using the commercial available “Compartemental Protein Extraction Kit” from Biochain institutes. Membrane fractions were prepared according to the manufacturer instructions. GEF-activity in membrane lysates was determined by using “RhoGEF Exchange Assay Biochem Kit” from Cytoskeleton Inc. according to manufacturer instructions. GEF-activity was measured as fluorescence at using the Fluoroskan Ascent FL 2.6 from Thermo Electron Corporation. The excitation Filter wavelength was set at 355 nm and the emission filter wavelength at 460 nm.

[3] = test system: Phosphorylated Myosin Light Chain (MLC) and actin stress fibers; test: MLC phosphorylation and actin stress fiber formation in Caco-2 cells (microscopy score); format: cell-based
Protocol: as §1, §2

[4] = test system: Phosphorylated Myosin Light Chain (MLC) and actin stress fibers; test: MLC phosphorylation and actin stress fiber formation in HpMec cells (microscopy score); format: cell-based
Protocol: as §1, §2

GEF [5] = test: GEF-activity in membrane fractions of HpMec cells (RhoGEF Exchange Assay); format: cell-based; settings: HpMec
Protocol: as §3

[6] = test system: Ventilator-Induced Lung Injury (VILI); test: Ventilator-induced lung injury (VILI) after LPS pre-challenge; format: in vivo; settings: mice
Protocol: Experiments were performed with healthy C57BL/6 (aged 8-10 weeks, with weights ranging from 19-25 g). All interventions were performed according to the guide lines of AAALAC. All experiment were approved by the Ethic committee of the University of Amsterdam.
Mice were challenged with LPS (dosage: 50 μg per mouse) (or saline), via intranasal injection 2 h before initiation of mechanical ventilation, to induce lung injury.
XIB1-1b (or random peptide) was administered i.v. 10 min before start of mechanical ventilation (dosage: 4 mg/kg loading dose, followed administration i.v. injections 1 mg/kg/h.
A Y-tube connector with 1.0 mm outer diameter and 0.6 mm inner diameter was surgically inserted into the trachea under general anesthesia. Mice were placed in a supine position and connected to a ventilator. Mice were pressure-controlled ventilated with either an inspiratory pressure of 10 cm H2O (resulting in VT˜7.5 mL/kg; low VT, LVT) or an inspiratory pressure of 18 cm H2O (resulting in VT˜15 mL/kg; high VT, HVT). Positive end-expiratory pressure (PEEP) is set at 2 cm H2O with both MV-strategies. The fraction of inspired oxygen was kept at 0.5 throughout the experiment. The inspiration to expiration ratio was kept at 1:1 throughout the experiment.
BALF was obtained by instilling 3 times 0.5 mL aliquots of saline by a 22-gauge Abbocath-T catheter (Abbott, Sligo, Ireland) into the trachea. Approximately, 1.0 mL of BALF was retrieved per mouse and cell counts were determined using a hemacytometer (Beckman Coulter, Fullerton, Calif.). Subsequently, differential counts were done on cytospin preparations stained with a modified Giemsa stain, Diff-Quick (Dade Behring AG, Düdingen, Switzerland). Supernatant was stored at −80° C.
Total protein levels in BALF are determined using a Bradford Protein Assay Kit (OZ Biosciences, Marseille, France) according to manufacturers' instructions with bovine serum albumin as standard. Mouse IgM was determined by ELISA by using anti-Mouse IgM sensitized 96-strip micro-well plates according to manufacturers' instructions (IMMUNO-TEK kit from ZeptoMetrix).

[7] = ECV 304, LPS 100 μg/ml, 1 min, with or without peptide 50 μg/ml
[8] = ECV 304, LPS 100 μg/ml, 5 min, with or without peptide 50 μg/ml
[9] = ECV 304, Thrombin 1 U/ml, 1 min, with or without peptide 50 μg/ml
[10] = ECV 304, Thrombin 1 U/ml, 5 min, with or without peptide 50 μg/ml
[11] = CaCo-2, PMA 1 μg/ml, 1 min, with or without peptide 50 μg/ml
[12] = CaCo-2, PMA 1 μg/ml, 5 min, with or without peptide 50 μg/ml
[13] = CaCo-2, no stimulus, 1 min, peptide 50 μg/ml
[14] = CaCo-2, no stimulus, 5 min, peptide 50 μg/ml
[15] = Thrombin 1 U/ml, 1 min, with or without peptide 50 μg/ml
[16] = Thrombin 1 U/ml, 5 min, with or without peptide 50 μg/ml
[17] = no stimulus, 1 min, peptide 50 μg/ml
[18] = no stimulus, 5 min, peptide 50 μg/ml
[19] = LPS + high tidal volume ventilation (LPS-HTV), i.v. 4 mg/kg loading, then 1 mg/kg/h
[20] = LPS + low tidal volume ventilation (LPS+LTV), compared to scrambled peptide
[21] = LPS + low tidal volume ventilation (LPS+LTV), protocol caused no pronounced increase

| Sequence | MLC phosphorylation and actin stress fiber formation, evaluation score (Mean) [1, 7] | MLC phosphorylation and actin stress fiber formation, evaluation score (Mean) [1, 8] | MLC phosphorylation and actin stress fiber formation, evaluation score (Mean) [1, 9] | MLC phosphorylation and actin stress fiber formation, evaluation score (Mean) [1, 10] | GEF-activity, relative values compared to unstimulated control (Mean) (GEF [2]; [11]) | GEF-activity, relative values compared to unstimulated control (Mean) (GEF [2]; [12]) | GEF-activity, relative values compared to unstimulated control (Mean) (GEF [2]; [13]) | GEF-activity, relative values compared to unstimulated control (Mean) (GEF [2]; [14]) | MLC phosphorylation and actin stress fiber formation, evaluation score (Mean) [3, 11] | MLC phosphorylation and actin stress fiber formation, evaluation score (Mean) [3, 12] | MLC phosphorylation and actin stress fiber formation, evaluation score (Mean) [3, 13] | MLC phosphorylation and actin stress fiber formation, evaluation score (Mean) [3, 14] | MLC phosphorylation and actin stress fiber formation, evaluation score (Mean) [4, 15] | MLC phosphorylation and actin stress fiber formation, evaluation score (Mean) [4, 16] | MLC phosphorylation and actin stress fiber formation, evaluation score (Mean) [4, 17] | MLC phosphorylation and actin stress fiber formation, evaluation score (Mean) [4, 18] | GEF-activity, relative values compared to unstimulated control (Mean) (GEF [5]; [15]) | GEF-activity, relative values compared to unstimulated control (Mean) (GEF [5]; [16]) | GEF-activity, relative values compared to unstimulated control (Mean) (GEF [5]; [17]) | GEF-activity, relative values compared to unstimulated control (Mean) (GEF [5]; [18]) | further results |
| --- | --- | --- | --- | --- | --- | --- | --- | --- | --- | --- | --- | --- | --- | --- | --- | --- | --- | --- | --- | --- | --- |
| GRRPGGASGG (/note=“Description of artificial sequence cingulin-derived peptide XIB1-a”) | 1* | 1* | 1* | 1* | 1.4* | 1.5 | 1 | 1 | 1* | 2* | 0 | 0 | 1* | 0.3* | 0 | 0 | 1.8* | 2.1* | 1 | 1 | MLC phosphorylation and actin stress fiber formation, evaluation score (Mean) ([1]; ECV 304, no stimulus, 1 min, peptide 50 μg/ml): 1; MLC phosphorylation and actin stress fiber formation, evaluation score (Mean) ([1]; ECV 304, no stimulus, 1 min, peptide 50 μg/ml, listed as XIB-a): 0 |
| GRRPLGGISGG (/note=“Description of artificial sequence cingulin-derived peptide XIB1-b”) | 1* | 1* | 1* | 1* | 1.4* | 1.5 | 1 | 1 | 1* | 2* | 0 | 0 | 1* | 0.3* | 0 | 0 | 1.8* | 2.1* | 1 | 1 | IgM content in the BALF [6, 19]: significant decrease; neutrophil count in the BALF [6, 19]: significant decrease; total cell count in the BALF [6, 19]: significant decrease; total protein content in the BALF [6, 19]: significant decrease; neutrophil counts in the BALF [6, 20]: significantly reduced; total cell counts in the BALF [6, 20]: significantly reduced; IgM content in the BALF [6, 21]: no effect; total protein content in the BALF [6, 21]: no effect |
